Results from article PMC9230431, “Application of In Silico Filtering and Isothermal Titration Calorimetry for the Discovery of Small Molecule Inhibitors of MDM2” (Pharmaceuticals, 2022).
Like-named read-outs stand apart in the source and are kept apart here.

Biological target: T1, MDM2 (Homo sapiens, UniProt Q00987)
T1 construct: His tag-GB1-TEV site fusion expressed in E. coli BL21; His-GB1 removed by TEV cleavage
Test: ITC, MDM2 titrated into compound, single-site fit
Type: binding
Description: ITC, MDM2 titrated into compound, single-site fit on MDM2

T1 sequence (Q00987 5-125): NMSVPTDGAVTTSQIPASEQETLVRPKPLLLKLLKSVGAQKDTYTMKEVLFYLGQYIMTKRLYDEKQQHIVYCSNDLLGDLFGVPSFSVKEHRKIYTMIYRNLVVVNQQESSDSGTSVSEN

Row | SMILES | Kd | Kd (50 mM sodium phosphate pH 6.8, 150 mM NaCl, 5% DMSO, 1 mM TCEP)
1 | Cc1cccc(C)c1NC(=O)C(c1ccc(Cl)cc1)N1C(=O)CC1c1cccc(C(F)(F)F)c1 (stereo not shown) [M1-7] | 33.5 µM | –
2 | Cc1cccc(C)c1NC(=O)C(c1ccc(Cl)cc1)N1C(=O)CC1c1ccsc1 (stereo not shown) [M1-10] | 19.5 µM | –
3 | Cc1ccc(C2CC(=O)N2C(C(=O)Nc2c(C)cccc2C)c2ccc(Cl)cc2)o1 (stereo not shown) [M1-11] | 13.1 µM | –
4 | Cc1cccc(C)c1NC(=O)C(c1ccc(Cl)cc1)N1C(=O)CC1c1ccc(OC(C)C)cc1 (stereo not shown) [M1] | 2.85 µM | –
5 | Cc1[nH]c2ccccc2c1C(NS(=O)(=O)c1ccc(Cl)cc1)C(Cl)(Cl)Cl (stereo not shown) [M2-3] | – | 49.7 µM
6 | O=S(=O)(NC(c1c[nH]c2cccc(F)c12)C(Cl)(Cl)Cl)c1ccc(Cl)cc1 (stereo not shown) [M2-7] | 0.979 µM | –
7 | O=S(=O)(NC(c1c[nH]c2ccc(F)cc12)C(Cl)(Cl)Cl)c1ccc(Cl)cc1 (stereo not shown) [M2-8] | 1.58 µM | –
8 | O=S(=O)(NC(c1c[nH]c2cccc(Cl)c12)C(Cl)(Cl)Cl)c1ccc(Cl)cc1 (stereo not shown) [M2-10] | 0.578 µM | –
9 | O=S(=O)(NC(c1c[nH]c2cc(Cl)ccc12)C(Cl)(Cl)Cl)c1ccc(Cl)cc1 (stereo not shown) [M2-11] | 0.704 µM | –
10 | Cc1ccc2c(C(NS(=O)(=O)c3ccc(Cl)cc3)C(Cl)(Cl)Cl)c[nH]c2c1 (stereo not shown) [M2-12] | 0.844 µM | –
11 | O=S(=O)(NC(c1c[nH]c2cc(F)cc(F)c12)C(Cl)(Cl)Cl)c1ccc(Cl)cc1 (stereo not shown) [M2-13] | 0.489 µM | –
12 | O=S(=O)(NC(c1c[nH]c2cc(F)ccc12)C(Cl)(Cl)Cl)c1ccc(Cl)cc1 (stereo not shown) [M2-14] | 1.22 µM | –
13 | COc1cc(Cl)ccc1S(=O)(=O)NC(c1c[nH]c2ccccc12)C(Cl)(Cl)Cl (stereo not shown) [M2-15] | 3.16 µM | –
14 | Cc1ccc(S(=O)(=O)NC(c2c[nH]c3cc(F)ccc23)C(Cl)(Cl)Cl)cc1 (stereo not shown) [M2-18] | 1.33 µM | –
15 | O=S(=O)(NC(c1c[nH]c2ccccc12)C(Cl)(Cl)Cl)c1ccc(Cl)cc1 (stereo not shown) [M2] | 2.08 µM | –
16 | COc1ccccc1-c1nnc(SC2CCCCC2=O)n1-c1ccc(Cl)cc1 (stereo not shown) [M3] | 16.6 µM | –
